Activity calls are given as the source filed them.
Columns and labels:
CAAX prenyl protease 2 [1] = target: CAAX prenyl protease 2 (Saccharomyces cerevisiae S288c, UniProt Q03530); type: biochemical
CAAX prenyl protease 2 [2] = target: CAAX prenyl protease 2 (Homo sapiens, UniProt Q9Y256); experiment: human Rce1 protease inhibitors, dose response, biochemical, yeast membranes, quenched-peptide fluorescence, cherry-pick (AID 588849)
Trypsin = Trypsin (Sus scrofa, UniProt P00761); experiment: porcine trypsin inhibitors, dose response, selectivity assay for Rce1 protease inhibitor project, biochemical, quenched peptide fluorescence, cherry-pick (AID 488789)
CAAX prenyl protease 1 = CAAX prenyl protease 1 (Saccharomyces cerevisiae S288c, UniProt P47154); experiment: Ste24 protease inhibitors, dose response, biochemical, S. cerevisiae, plate reader, cherry-pick (AID 488815)
Caspase-3 = target: T1, Caspase-3 (Homo sapiens, UniProt P42574); experiment: caspase-3 enzyme inhibitors, selectivity check, dose response, selectivity assay for caspase-6 allosteric inhibitor project, biochemical, fluorescence, cherry-picked samples (AID 743291)
T1 sequence (P42574 whole entry): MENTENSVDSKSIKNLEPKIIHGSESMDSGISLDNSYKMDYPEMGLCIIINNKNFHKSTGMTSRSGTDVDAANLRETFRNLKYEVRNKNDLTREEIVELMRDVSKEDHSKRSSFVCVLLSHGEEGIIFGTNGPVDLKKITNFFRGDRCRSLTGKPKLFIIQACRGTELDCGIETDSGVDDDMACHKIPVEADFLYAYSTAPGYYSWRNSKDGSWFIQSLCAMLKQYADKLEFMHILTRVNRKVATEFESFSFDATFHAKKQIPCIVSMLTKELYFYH

Caspase-6 = target: T2, Caspase-6 (Homo sapiens, UniProt P55212); experiment: human caspase-6 inhibitors, dose response, biochemical, VEID-R110 fluorescence, cherry-pick (AID 720632)
T2 sequence (P55212 whole entry): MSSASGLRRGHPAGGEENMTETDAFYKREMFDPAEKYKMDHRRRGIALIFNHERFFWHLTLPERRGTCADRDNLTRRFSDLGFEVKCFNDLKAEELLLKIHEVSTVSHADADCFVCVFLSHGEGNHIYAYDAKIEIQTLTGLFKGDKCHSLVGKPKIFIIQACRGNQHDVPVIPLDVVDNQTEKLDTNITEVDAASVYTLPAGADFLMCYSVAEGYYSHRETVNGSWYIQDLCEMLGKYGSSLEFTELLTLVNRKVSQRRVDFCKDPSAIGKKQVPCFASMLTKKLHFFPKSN

[3] = C. albicans growth with fluconazole, confirmation, fluorescence, retest (AID 2467); type: functional, cell-based
[4] = NIH-3T3 fibroblast cytotoxicity, dose response, cytotoxicity control, cell-based, fluorescence, Alamar Blue, secondary assay (AID 2327); type: functional;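 further: NIH-3T3 mouse fibroblasts cultured with fluconazole at 8 µg/mL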
Vero = Vero cell cytotoxicity, cytotoxicity control for flavivirus capping enzyme inhibitors (AID 588742); type: functional; conditions: Chlorocebus sabaeus
[5] = target: T3, Lysine-specific demethylase 4C (Homo sapiens, UniProt Q9H3R0); experiment: GASC-1 (JMJD2C) histone demethylase inhibitors, dose response, biochemical, DELFIA europium, cherry-picked samples (AID 488835); type: functional
T3 sequence (Q9H3R0 whole entry): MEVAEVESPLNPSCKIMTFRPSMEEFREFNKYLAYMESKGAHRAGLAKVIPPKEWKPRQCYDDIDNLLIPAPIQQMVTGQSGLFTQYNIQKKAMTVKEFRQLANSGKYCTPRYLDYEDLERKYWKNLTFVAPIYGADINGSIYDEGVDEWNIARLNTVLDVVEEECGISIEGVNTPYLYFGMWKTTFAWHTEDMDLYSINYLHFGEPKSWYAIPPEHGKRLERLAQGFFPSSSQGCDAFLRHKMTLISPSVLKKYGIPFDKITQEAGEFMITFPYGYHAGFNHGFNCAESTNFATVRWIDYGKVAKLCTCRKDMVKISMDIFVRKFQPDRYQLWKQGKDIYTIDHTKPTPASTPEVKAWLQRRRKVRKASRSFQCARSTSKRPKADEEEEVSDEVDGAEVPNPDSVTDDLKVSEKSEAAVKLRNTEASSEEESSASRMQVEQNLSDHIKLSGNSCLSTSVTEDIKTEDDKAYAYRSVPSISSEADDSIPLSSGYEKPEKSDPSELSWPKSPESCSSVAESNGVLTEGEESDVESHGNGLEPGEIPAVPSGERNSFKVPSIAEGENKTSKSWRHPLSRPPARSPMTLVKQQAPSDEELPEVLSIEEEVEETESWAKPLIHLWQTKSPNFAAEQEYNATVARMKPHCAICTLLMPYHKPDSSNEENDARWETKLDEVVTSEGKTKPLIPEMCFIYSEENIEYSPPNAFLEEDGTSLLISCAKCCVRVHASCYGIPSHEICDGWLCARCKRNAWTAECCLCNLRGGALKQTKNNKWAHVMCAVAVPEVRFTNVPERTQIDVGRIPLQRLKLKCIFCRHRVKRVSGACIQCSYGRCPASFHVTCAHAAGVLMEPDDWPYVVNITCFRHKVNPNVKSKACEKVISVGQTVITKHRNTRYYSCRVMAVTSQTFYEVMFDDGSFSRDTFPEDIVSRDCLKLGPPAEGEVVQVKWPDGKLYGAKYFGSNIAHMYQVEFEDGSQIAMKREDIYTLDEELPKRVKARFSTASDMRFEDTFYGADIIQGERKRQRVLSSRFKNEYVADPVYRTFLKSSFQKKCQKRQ

Large T antigen = Large T antigen (Simian virus 40, UniProt P03070); type: functional, Betapolyomavirus macacae;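 further: Confirmatory-stage PubChem screen for compounds that inhibit SV40 T antigen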
Large T antigen, sequence (P03070 whole entry): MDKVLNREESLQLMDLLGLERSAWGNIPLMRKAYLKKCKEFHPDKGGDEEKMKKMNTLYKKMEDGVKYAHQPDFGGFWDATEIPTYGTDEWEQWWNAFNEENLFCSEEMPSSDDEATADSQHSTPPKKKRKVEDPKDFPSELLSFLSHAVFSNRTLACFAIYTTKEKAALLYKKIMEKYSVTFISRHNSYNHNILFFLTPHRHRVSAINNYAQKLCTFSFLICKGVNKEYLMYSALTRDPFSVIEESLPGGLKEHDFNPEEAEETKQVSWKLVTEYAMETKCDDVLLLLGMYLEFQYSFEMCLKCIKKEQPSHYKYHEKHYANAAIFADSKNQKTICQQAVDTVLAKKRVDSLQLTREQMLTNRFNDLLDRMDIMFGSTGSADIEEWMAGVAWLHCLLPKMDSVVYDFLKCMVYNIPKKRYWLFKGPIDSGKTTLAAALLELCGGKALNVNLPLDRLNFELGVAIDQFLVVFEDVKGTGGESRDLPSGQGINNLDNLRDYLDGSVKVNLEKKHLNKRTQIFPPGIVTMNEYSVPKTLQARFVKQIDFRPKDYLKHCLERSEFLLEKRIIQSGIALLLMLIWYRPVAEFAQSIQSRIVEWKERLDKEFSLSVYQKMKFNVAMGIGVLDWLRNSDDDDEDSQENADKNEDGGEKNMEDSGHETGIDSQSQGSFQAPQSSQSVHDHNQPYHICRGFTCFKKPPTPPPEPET

[6] = target: Matrix metalloproteinase-14 (Homo sapiens, UniProt P50281); experiment: Dose Response confirmation of uHTS hits for a small molecule inhibitors of MT1-MMP activation in a fluorescence assay set 2.; type: functional
[7] = target: RNA-editing ligase 1, mitochondrial (Trypanosoma brucei brucei, UniProt P86926); experiment: TbREL1 ligase inhibitors, dose response, biochemical, fluorescence, Trypanosoma brucei (AID 1117295); type: functional
[8] = target: 1-phosphatidylinositol 4,5-bisphosphate phosphodiesterase gamma-1 (Homo sapiens, UniProt P19174); experiment: Counterscreen for inhibitors of phospholipase C isozymes (PLC-B3): Fluorescence-based biochemical high throughput dose response assay to identify inhibitors of phospholipase C isozymes (PLC-gamma1).
1-phosphatidylinositol 4,5-bisphosphate phosphodiesterase gamma-1, sequence (P19174 whole entry): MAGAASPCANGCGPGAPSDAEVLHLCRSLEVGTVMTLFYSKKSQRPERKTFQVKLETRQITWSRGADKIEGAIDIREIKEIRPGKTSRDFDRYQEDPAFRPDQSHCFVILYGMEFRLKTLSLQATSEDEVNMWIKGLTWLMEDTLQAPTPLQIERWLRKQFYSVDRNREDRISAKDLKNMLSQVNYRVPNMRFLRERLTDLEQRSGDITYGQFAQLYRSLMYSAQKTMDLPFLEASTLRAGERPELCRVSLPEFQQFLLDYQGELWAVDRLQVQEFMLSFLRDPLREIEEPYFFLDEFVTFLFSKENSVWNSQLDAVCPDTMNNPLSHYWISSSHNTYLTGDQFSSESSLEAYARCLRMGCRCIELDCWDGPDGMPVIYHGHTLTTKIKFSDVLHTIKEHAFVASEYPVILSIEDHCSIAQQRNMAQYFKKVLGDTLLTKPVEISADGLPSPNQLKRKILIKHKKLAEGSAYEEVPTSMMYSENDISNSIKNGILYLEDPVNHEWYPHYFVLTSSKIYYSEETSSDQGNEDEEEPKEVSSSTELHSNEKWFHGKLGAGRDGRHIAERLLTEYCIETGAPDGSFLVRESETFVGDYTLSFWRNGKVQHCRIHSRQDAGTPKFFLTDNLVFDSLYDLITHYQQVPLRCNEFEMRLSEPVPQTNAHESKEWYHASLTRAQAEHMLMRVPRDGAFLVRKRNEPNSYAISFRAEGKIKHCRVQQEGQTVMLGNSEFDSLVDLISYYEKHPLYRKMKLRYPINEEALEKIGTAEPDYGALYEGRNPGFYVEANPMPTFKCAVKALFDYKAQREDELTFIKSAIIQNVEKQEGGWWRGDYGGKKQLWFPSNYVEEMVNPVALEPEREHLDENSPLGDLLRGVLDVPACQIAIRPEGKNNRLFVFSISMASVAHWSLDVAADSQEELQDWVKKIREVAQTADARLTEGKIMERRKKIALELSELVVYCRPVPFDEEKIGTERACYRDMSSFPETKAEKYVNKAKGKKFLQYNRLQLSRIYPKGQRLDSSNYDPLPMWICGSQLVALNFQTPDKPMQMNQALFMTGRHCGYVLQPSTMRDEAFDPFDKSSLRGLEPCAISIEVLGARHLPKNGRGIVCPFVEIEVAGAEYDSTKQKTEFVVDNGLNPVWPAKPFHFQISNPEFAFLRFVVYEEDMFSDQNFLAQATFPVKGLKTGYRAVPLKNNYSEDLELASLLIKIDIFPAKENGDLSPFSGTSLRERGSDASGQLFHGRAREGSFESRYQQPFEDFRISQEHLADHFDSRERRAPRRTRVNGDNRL

Caspase-7 = Caspase-7 (Homo sapiens, UniProt P55210); experiment: human caspase-7 inhibitors, dose response, selectivity assay for caspase-6 inhibitor project, biochemical, DEVD-R110 fluorescence, cherry-pick (AID 743295)
Caspase-7, sequence (P55210 24-198 limits assumed): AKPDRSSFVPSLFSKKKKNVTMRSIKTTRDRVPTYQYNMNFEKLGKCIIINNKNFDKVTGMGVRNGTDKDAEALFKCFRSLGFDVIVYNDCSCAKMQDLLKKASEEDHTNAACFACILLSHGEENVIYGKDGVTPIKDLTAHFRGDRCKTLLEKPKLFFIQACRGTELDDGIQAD
Caspase-7, sequence (P55210 207-303 limits assumed): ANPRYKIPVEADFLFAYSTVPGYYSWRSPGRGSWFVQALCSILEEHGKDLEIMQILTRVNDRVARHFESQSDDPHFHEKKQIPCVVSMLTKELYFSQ

Caspase-9 = Caspase-9 (Homo sapiens, UniProt P55211); experiment: caspase-9 enzyme inhibition, dose response, selectivity assay for caspase-6 inhibitor project, biochemical, fluorescence, plate reader, cherry-picked samples (AID 743293)
[9] = target: 1-phosphatidylinositol 4,5-bisphosphate phosphodiesterase beta-3 (Homo sapiens, UniProt Q01970); experiment: Fluorescence-based biochemical high throughput dose response assay to identify inhibitors of phospholipase C isozymes (PLC-B3).
1-phosphatidylinositol 4,5-bisphosphate phosphodiesterase beta-3, sequence (Q01970 whole entry): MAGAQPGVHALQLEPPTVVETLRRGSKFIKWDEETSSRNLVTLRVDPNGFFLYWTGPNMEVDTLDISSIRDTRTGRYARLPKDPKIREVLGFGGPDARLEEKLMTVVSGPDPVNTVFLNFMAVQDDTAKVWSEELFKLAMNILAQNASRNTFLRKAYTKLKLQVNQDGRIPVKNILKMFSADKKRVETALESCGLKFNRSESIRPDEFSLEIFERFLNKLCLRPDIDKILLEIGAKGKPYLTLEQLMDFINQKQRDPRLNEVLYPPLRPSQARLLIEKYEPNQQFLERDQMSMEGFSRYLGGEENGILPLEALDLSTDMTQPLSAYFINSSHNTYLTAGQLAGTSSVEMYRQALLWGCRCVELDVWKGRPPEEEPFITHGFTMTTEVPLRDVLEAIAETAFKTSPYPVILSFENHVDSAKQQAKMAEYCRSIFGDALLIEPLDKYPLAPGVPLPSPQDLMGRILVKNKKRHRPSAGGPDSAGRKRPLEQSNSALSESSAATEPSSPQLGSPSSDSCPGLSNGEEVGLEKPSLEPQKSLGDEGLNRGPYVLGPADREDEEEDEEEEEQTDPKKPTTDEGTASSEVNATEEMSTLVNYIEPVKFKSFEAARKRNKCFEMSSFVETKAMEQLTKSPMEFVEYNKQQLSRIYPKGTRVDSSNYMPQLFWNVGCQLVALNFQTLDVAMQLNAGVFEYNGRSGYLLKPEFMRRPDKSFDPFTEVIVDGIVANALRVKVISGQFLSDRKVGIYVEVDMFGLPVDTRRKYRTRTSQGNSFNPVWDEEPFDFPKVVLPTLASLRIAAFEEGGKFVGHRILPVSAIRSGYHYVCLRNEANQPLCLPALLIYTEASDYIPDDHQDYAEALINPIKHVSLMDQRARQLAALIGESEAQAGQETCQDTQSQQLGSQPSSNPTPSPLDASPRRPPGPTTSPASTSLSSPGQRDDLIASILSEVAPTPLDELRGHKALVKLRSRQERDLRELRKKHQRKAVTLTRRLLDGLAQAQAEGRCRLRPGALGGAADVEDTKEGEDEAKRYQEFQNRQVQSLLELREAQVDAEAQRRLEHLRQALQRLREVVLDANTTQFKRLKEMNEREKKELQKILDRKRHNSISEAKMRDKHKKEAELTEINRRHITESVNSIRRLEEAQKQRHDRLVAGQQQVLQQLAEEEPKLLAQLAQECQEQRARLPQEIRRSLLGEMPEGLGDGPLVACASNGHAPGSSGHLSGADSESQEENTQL

[10] = target: Heat shock protein HSP 90-alpha (Homo sapiens, UniProt P07900); type: functional, organism-based
Streptokinase A = target: T4, Streptokinase A (Streptococcus pyogenes serotype M1, UniProt P10520); experiment: S. pyogenes streptokinase expression inhibitors, potency, dose response, plasminogen activation absorbance, OD405 (AID 1914); type: functional, Streptococcus pyogenes M1 GAS;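 further: secreted streptokinase activity via plasminogen activation per viability signal from cell pellet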
T4 sequence (P10520 whole entry): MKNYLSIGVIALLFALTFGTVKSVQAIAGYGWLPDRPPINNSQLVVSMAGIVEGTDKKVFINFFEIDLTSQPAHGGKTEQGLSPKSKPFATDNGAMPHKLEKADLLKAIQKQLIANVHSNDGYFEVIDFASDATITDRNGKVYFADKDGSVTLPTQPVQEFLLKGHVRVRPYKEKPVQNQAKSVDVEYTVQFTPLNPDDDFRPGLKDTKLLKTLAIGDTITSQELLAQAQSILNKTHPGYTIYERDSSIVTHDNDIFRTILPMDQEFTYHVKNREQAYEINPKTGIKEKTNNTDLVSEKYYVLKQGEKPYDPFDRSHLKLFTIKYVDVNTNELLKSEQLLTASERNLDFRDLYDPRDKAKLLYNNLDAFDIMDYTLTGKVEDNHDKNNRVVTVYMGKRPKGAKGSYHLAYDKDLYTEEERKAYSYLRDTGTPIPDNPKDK

[11] = system: Streptococcus sp. 'group A'; experiment: growth inhibition of control SK(-) GAS strain, dose response, counter-screen for streptokinase expression inhibitor project, luminescence, kanamycin, BacTiterGlo, confirmation (AID 1900); type: functional, organism-based
[12] = target: Lysine-specific demethylase 4A (Homo sapiens, UniProt O75164); experiment: JMJD2A histone demethylase inhibitors, dose response, selectivity assay for GASC-1 inhibitor project, biochemical, DELFIA europium, cherry-picked samples (AID 488840)
NS3 = NS3 (Hepatitis C virus, UniProt A3EZJ3); experiment: PubChem AID 2173; set-up: species or system Hepacivirus hominis
Streptococcus = experiment: Group A Streptococcus viability loss, dose response, counter-screen for streptokinase expression inhibitor project, luminescence, BacTiterGlo (AID 1915); type: functional, organism-based;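 further: potency for reduction of bacterial viability or growth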
Troponin, cardiac muscle = Troponin, cardiac muscle (Homo sapiens, UniProt P19429+P45379+P63316); experiment: inhibitors of cardiac thin filament calcium sensitivity, dose response, biochemical, fluorescence, cardiac regulated thin filaments, triplicate IC50 (AID 504742); type: protein-complex assay
Caspase-8 = Caspase-8 (Homo sapiens, UniProt Q14790); experiment: caspase-8 inhibition counter-screen, dose response, selectivity assay for caspase-6 inhibitor project, biochemical, Z-IETD-R110 fluorescence, cherry-picked samples (AID 743294)
Caspase-8, sequence (Q14790 217-374 limits assumed): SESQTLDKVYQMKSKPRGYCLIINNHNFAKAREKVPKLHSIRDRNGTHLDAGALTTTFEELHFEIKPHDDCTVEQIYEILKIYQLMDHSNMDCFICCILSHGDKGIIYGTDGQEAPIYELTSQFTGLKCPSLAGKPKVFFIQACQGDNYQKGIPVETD
Caspase-8, sequence (Q14790 385-479 limits assumed): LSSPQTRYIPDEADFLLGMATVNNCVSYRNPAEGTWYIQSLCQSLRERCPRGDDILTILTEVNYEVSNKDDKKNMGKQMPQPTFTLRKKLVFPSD

[13] = target: T5, Intestinal-type alkaline phosphatase (Homo sapiens, UniProt P09923); experiment: human IAP activators, dose response, biochemical, luminescent, uHTS hits, set 2 (AID 488817); type: functional;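 further: potency of activators that raise enzyme activity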
T5 sequence (P09923 whole entry): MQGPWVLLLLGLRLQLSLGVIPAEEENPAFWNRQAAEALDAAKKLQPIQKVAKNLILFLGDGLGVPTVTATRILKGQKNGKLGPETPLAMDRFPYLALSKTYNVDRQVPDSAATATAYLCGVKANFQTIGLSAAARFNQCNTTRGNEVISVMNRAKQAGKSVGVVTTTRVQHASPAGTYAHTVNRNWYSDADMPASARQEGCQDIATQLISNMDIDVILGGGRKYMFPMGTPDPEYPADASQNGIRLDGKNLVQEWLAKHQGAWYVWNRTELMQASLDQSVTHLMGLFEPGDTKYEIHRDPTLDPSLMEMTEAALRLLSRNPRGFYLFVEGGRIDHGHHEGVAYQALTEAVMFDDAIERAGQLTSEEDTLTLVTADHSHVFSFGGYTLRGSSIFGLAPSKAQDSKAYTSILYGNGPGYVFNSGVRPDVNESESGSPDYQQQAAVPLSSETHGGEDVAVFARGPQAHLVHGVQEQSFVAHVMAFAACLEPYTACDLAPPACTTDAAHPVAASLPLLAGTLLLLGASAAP

[14] = target: T6, Alkaline phosphatase, tissue-nonspecific isozyme (Homo sapiens, UniProt P05186); experiment: TNAP enzyme activators, dose response, selectivity assay for human IAP activator project, biochemical, TNAP isozyme, human IAP uHTS hits (AID 488886); type: functional;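 further: potency of compounds raising TNAP activity as a selectivity check on IAP activators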
T6 sequence (P05186 whole entry): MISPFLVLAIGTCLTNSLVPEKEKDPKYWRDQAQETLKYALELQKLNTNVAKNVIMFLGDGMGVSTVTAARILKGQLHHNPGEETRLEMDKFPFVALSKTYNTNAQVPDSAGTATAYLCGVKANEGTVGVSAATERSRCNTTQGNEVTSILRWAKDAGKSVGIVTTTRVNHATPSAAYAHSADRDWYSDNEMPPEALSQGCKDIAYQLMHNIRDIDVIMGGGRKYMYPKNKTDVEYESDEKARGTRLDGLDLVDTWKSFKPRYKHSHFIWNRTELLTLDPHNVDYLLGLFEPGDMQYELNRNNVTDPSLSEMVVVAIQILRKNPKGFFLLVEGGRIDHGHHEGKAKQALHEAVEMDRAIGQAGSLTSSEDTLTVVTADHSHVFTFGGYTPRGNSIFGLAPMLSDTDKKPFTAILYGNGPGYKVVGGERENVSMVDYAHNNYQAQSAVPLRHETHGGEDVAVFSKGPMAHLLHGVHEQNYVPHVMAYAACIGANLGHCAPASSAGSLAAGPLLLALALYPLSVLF

[15] = target: T5, Intestinal-type alkaline phosphatase; experiment: human intestinal alkaline phosphatase activators, dose response, biochemical, luminescence, uHTS hits (AID 463120); type: functional
[16] = target: Intestinal-type alkaline phosphatase (Mus musculus, UniProt P24822); experiment: PubChem AID 488875; type: functional
[17] = target: T7, Mannose-6-phosphate isomerase (Homo sapiens, UniProt P34949); experiment: PMI enzyme inhibitors, confirmation, biochemical, fluorescence intensity (AID 1535)
T7 sequence (P34949 whole entry): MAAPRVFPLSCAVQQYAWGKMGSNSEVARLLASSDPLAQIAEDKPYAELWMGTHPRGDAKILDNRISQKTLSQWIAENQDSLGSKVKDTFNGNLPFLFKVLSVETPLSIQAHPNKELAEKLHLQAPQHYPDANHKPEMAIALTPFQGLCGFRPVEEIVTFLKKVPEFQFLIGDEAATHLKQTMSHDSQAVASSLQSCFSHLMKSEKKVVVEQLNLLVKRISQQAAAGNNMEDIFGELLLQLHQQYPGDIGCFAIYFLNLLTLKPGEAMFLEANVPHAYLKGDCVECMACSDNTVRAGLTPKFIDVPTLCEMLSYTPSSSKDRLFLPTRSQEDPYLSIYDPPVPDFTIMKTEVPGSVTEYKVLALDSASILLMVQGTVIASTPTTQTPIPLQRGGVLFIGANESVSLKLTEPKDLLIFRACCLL

Phosphomannomutase 2 = Phosphomannomutase 2 (Homo sapiens, UniProt O15305); experiment: Counter screen SAR assay for PMM2 inhibitors via a fluorescence intensity assay. [Related pubchem assays (depositor defined):AID1545, AID1574]

CAAX prenyl protease 2 (Saccharomyces cerevisiae S288c, UniProt Q03530), sequence (Q03530 whole entry): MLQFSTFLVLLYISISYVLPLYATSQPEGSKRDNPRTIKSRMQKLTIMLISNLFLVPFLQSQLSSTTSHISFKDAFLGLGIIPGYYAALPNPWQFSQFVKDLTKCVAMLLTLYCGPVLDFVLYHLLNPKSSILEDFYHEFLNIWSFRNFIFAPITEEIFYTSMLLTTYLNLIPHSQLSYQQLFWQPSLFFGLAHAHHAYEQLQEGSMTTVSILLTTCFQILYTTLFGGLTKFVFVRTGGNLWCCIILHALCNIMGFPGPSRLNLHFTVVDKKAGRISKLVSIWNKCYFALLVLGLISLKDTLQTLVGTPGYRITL
CAAX prenyl protease 2 (Homo sapiens, UniProt Q9Y256), sequence (Q9Y256 whole entry): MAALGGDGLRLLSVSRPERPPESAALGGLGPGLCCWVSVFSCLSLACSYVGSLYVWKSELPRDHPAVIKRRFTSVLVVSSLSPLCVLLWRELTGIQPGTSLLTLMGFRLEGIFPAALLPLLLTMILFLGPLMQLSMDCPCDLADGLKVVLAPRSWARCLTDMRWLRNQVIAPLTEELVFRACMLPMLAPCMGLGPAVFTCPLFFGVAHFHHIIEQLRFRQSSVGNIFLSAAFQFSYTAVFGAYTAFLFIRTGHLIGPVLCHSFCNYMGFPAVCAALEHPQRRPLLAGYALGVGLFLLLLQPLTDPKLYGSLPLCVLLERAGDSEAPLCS

Nc1nc(N2CCN(C(=O)c3ccco3)CC2)nc2ccccc12
AC50 (CAAX prenyl protease 2 [1]): 28.7 µM (active) | AC50 (CAAX prenyl protease 2 [2]): 8.22 µM (active) | AC50 (Trypsin): 15.3 µM (active) | AC50 (CAAX prenyl protease 1): 3.46 µM (active)

O=c1cc2oc3cc(O)c(O)cc3c(-c3ccccc3[N+](=O)[O-])c-2cc1O
AC50 (Caspase-3): 0.122 µM (active) | AC50 (Caspase-6): 0.018 µM (active) | EC50 [3]: 1.07 µM (active) | EC50 [4]: 8.25 µM (active) | CC50 (Vero): 12.2 µM (active) | AC50 [5]: 1.97 µM (active) | IC50 (Large T antigen): 5.91 µM (active) | IC50 [6]: 17.9 µM (active) | IC50 [7]: > 96.6 µM (inactive) | IC50 [8]: 67.5 µM (inactive) | AC50 (Caspase-7): 1.33 µM (active) | AC50 (Caspase-9): > 70 µM (inactive) | IC50 [9]: > 123 µM (inactive) | AC50 [10]: 2.9 µM (active) | EC50 (Streptokinase A): 11.2 µM (active) | EC50 [11]: 7.94 µM (active) | AC50 [12]: 2.01 µM (active) | IC50 (NS3): 0.99 µM (active) | EC50 (Streptococcus): 10.2 µM (active) | IC50 (Troponin, cardiac muscle): 1.64 µM (active) | AC50 (Caspase-8): 41.3 µM (active)

COc1ccccc1CNC(=O)CN(c1ccc(C)cc1)S(=O)(=O)c1c(C)noc1C
EC50 [13]: 99 µM (active) | EC50 [14]: 76.2 µM (active) | EC50 [15]: 86 µM (active) | EC50 [16]: 67.5 µM (active)

COc1ccc(/N=c2\ssnc2Cl)cc1OC
IC50 [17]: 36.7 µM (active) | IC50 (Phosphomannomutase 2): > 100 µM (inactive)

— ChEMBL document CHEMBL1201862, “PubChem BioAssay data set” (2004)
